± gives the expanded uncertainty stated by the source.
Columns and labels:
[1] = xn = mol fraction of the nth substance listed; conditions: 298.15 K, 101.3 kPa, Liquid; for speed of sound: Sing-around technique in a fixed-path interferometer
[2] = 298.15 K; 101.33 kPa; Liquid

CCCCO [butan-1-ol] + CCCCCCCCCC
[1], x1 = 1
Conditions | mass density [kg/m3] | speed of sound [m/s]
– | 805.67 ± 0.23 | 1239.8 ± 0.9

CCCCCCCCCC [decane]
[2]
Conditions | mass density [kg/m3] | speed of sound [m/s]
– | 726.09 ± 0.52 | 1234.7 ± 1.1

COC(C)(C)C [2-methoxy-2-methylpropane]
[2]
Conditions | mass density [kg/m3] | speed of sound [m/s]
– | 735.35 ± 0.36 | 1036.1 ± 0.5

CCCCO [butan-1-ol]
[2]
Conditions | mass density [kg/m3] | speed of sound [m/s]
– | 805.67 ± 0.29 | 1239.8 ± 0.7

CCCCCCCCCC [decane] + CCCCO
[1]
Conditions | mass density [kg/m3] | speed of sound [m/s]
x2 = 0 | 726.09 ± 0.46 | 1234.7 ± 1.4
x2 = 0.04848 | 727.38 ± 0.45 | 1230.8 ± 1.3
x2 = 0.09526 | 728.99 ± 0.44 | 1228.9 ± 1.3
x2 = 0.2045 | 733.33 ± 0.41 | 1225.6 ± 1.2
x2 = 0.2974 | 737.65 ± 0.39 | 1223.9 ± 1.2
x2 = 0.3949 | 742.88 ± 0.37 | 1222.7 ± 1.1
x2 = 0.4455 | 745.96 ± 0.36 | 1222.5 ± 1.1
x2 = 0.4928 | 749.07 ± 0.34 | 1222.4 ± 1.1
x2 = 0.5579 | 753.72 ± 0.33 | 1222.7 ± 1.1
x2 = 0.5937 | 756.5 ± 0.32 | 1222.9 ± 1.1
x2 = 0.7031 | 766.17 ± 0.3 | 1224.6 ± 1
x2 = 0.7901 | 775.35 ± 0.28 | 1226.7 ± 1
x2 = 0.8707 | 785.36 ± 0.26 | 1230.4 ± 1
x2 = 0.948 | 796.76 ± 0.24 | 1235.3 ± 0.9
